Experiments:
Proline racemase [1] = target: T1, Proline racemase (Clostridium sticklandii, UniProt Q9L4Q3); experiment: Noncompetitive inhibition of N-terminal 6xHis-tagged Clostridium sticklandii ATCC 12662 proline racemase expressed in Escherichia coli BL21(DE3) using L/D-proline as substrate preincubated for 5 mins by Cornish-Bowden plot analysis; set-up: species or system Acetoanaerobium sticklandii
T1 sequence (Q9L4Q3 whole entry): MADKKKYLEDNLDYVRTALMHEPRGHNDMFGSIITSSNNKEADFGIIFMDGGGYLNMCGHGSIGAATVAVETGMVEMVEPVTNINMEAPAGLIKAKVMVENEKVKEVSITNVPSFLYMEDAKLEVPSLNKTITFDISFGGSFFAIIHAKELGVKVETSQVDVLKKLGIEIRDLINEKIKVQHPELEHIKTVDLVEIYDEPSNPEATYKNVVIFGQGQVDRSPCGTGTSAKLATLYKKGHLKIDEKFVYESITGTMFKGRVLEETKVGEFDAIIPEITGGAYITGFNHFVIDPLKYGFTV

Proline racemase [2] = target: T1, Proline racemase; experiment: Inhibition of N-terminal 6xHis-tagged Clostridium sticklandii ATCC 12662 proline racemase expressed in Escherichia coli BL21(DE3) using L/D-proline as substrate preincubated for 5 mins by circular dichroism-based analysis; set-up: species or system Acetoanaerobium sticklandii
[3] = target: T2, Proline racemase (Clostridium sticklandii) (UniProt Q9L4Q3); experiment: Inhibition of N-terminal 6xHis-tagged Clostridium sticklandii ATCC 12662 proline racemase expressed in Escherichia coli BL21(DE3) using L/D-proline as substrate at 142.5 mM preincubated for 5 mins by circular dichroism-based analysis; conditions: Acetoanaerobium sticklandii
T2 sequence (whole entry): T1 sequence (Q9L4Q3 whole entry)

Serine racemase [4] = target: T3, Serine racemase (Schizosaccharomyces pombe (strain 972 / ATCC 24843) (Fission yeast), UniProt O59791); experiment: (§1) Mixed type inhibition of N-terminal 6xHis-tagged recombinant Schizosaccharomyces pombe 972 serine racemase expressed in Escherichia coli BL21(DE3) using L-serine as substrate assessed as enzyme-substrate-inhibitor complex preincubated for 2 mins followed by substrate addition by double reciprocal plot analysis
T3 sequence (O59791 whole entry): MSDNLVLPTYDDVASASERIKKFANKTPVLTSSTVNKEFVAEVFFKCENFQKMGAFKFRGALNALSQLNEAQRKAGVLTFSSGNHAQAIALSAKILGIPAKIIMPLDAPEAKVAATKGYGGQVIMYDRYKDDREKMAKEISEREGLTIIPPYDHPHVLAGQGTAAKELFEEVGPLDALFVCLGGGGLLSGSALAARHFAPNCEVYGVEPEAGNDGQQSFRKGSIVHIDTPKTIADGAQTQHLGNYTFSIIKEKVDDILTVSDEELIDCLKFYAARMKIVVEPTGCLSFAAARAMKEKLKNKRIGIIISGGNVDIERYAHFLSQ

Serine racemase [5] = target: T3, Serine racemase; experiment: as §1, with “enzyme-inhibitor” for “enzyme-substrate-inhibitor”
[6] = target: T2, Proline racemase (Clostridium sticklandii); experiment: Inhibition of Clostridium sticklandii ATCC 12662 proline racemase L-proline as substrate at 57 mM relative to control; conditions: Acetoanaerobium sticklandii
[7] = target: T2, Proline racemase (Clostridium sticklandii); experiment: Inhibition of Clostridium sticklandii ATCC 12662 proline racemase using L-proline as substrate at 0.36 mM relative to control; conditions: Acetoanaerobium sticklandii
Proline racemase [8] = target: T1, Proline racemase; experiment: Competitive inhibition of N-terminal 6xHis-tagged Clostridium sticklandii ATCC 12662 proline racemase expressed in Escherichia coli BL21(DE3) using L/D-proline as substrate; set-up: species or system Acetoanaerobium sticklandii

O=C(O)C12CCCN1CCC2
Ki (Proline racemase [1]): 111 mM | IC50 (Proline racemase [2]): 67 mM

O=C(O)C12CCC(CC1)N2
inhibition [3]: 29%

NC(CO)(CO)C(=O)O
Ki (Serine racemase [4]): 661 mM | Ki (Serine racemase [5]): 167 mM

O=Cc1ccc[nH]1
inhibition [6]: 98% | inhibition [7]: 50% | Ki (Proline racemase [8]): 5.8 µM

— ChEMBL document CHEMBL3098053, “Inhibition of serine and proline racemases by substrate-product analogues” (Bioorg Med Chem Lett, 2014)
